{"source": "patent US6294649A", "about": "“Method of cell inhibition using polypeptides derived from the venom of the Austrialian jumper ant Myrmecia pilosula” (Northern Sydney Area Health Service, priority 1996, dated 2001)", "key": {"Red blood cells": {"system": "Red blood cells", "experiment": "Red blood cell lysis", "assay_type": "cell-based", "settings": "1% (v/v) red blood cells in PBS; peptides 0.3125-80 μM", "procedure": "Red blood cells were prepared from fresh whole blood. Red blood cells were diluted to 1% (v/v) with PBS and 0.1 mL aliquots added to a 96 well microtitre plate. Venom and venom peptides were added in 5 μL of normal saline. Whole ant venom concentration (final): 80, 40, 20, 10, 5, 2.5, 1.25, 0.625, 0.3125 4μg/mL. Venom peptide concentration (final): 80, 40, 20, 10, 5, 2.5, 1.25, 0.625, 0.3125 μM."}, "EBV-transformed B-cells": {"system": "EBV-transformed B-cells", "experiment": "Flow cytometry cell viability (propidium iodide exclusion)", "assay_type": "cell-based, human", "settings": "5 μM, treated for 5 minutes; untreated control about 15% permeable", "procedure": "(§1) Cell proliferation and flow cytometry have been used to determine the cytotoxic effects on cells. Cell proliferation involves growing cells to log-phase growth and adding Pilosulin 1 at different final peptide concentrations and ^3 H-methyl thymidine at the same time. The cells are incubated at 37° C. for 16 hours, harvested, lysed and washed and the cells liquid scintillation counted. Flow cytometry employs the exclusion of propidium iodide from cells as an index of their viability. In experiments where fluorescent labelled monoclonal antibodies recognising cell specific markers were used, exclusion of 7-actinomycin D was used as the index of cell viability. In these latter experiments cells were incubated with the fluorescent antibodies and then washed to remove unbound antibodies. The treated cells were stored on ice and Pilosulin 1 added 5 minutes prior to flow cytometric measurement.\nFlow cytometry can measure cell viability by their ability to exclude a fluorescent dye such as propidium iodide or 7-actinomycin D. EBV-transformed B-cells were cultured to log-phase growth and venom and venom peptides added. […] Cells were treated for 5 minutes with Pilosulin 1, Pilosulin 2 and melittin over a concentration range of 0.1 to 10 μM and then cell numbers were measured in the flow cytometer."}, "[1]": {"system": "Antibody-labelled (CD3-FITC) white blood cells (T-cell)", "experiment": "Kinetics of cell killing at different temperatures (7-AAD, flow cytometry)", "assay_type": "cell-based", "settings": "3 μM melittin", "procedure": "The kinetics of Pilosulin 1 and melittin cell killing at different temperatures were investigated. Antibody-labelled (CD3-FITC) white blood cells were incubated with 7-AAD (4 μg/mL) and either 1.5 μM Pilosulin 1 or 3 μM melittin. Three tubes were prepared for each peptide and the tubes were incubated at either 0° C. (circles), room temperature (triangles), or 37° C. (diamonds). Samples of each tube were analysed on a flow cytometer at time zero and thereafter at 2, 5 10 and 15 minutes."}, "[2]": {"system": "Epstein Barr-transformed human B-cells", "experiment": "Cell proliferation (3H-methyl-thymidine)", "assay_type": "cell-based", "procedure": "as §1\nEpstein Barr-transformed human B-cells grown to log phase. One hundred […] of cells (10^5 cells) were placed in the wells of microtitre plates. Venom and venom peptides added to the wells in […] to give final concentrations used in the red cell lysis experiment. One μCi of ^3 H-methyl-thymidine was added to the wells and the plates incubated overnight at 37° C. Cells harvested 17 hr later and counted."}, "granulocyte population": {"system": "granulocyte population", "experiment": "Relative cytotoxicity for leucocyte components, flow cytometry (7-actinomycin D uptake)", "assay_type": "cell-based", "procedure": "as §1\nThe relative cytotoxicity of Pilosulin 1 for the different components of the leucocyte population was studied and the results are shown in FIG. 3."}, "[3]": {"system": "solid tumour cell lines including a breast cancer, a brain tumour and a kidney cell tumour line", "experiment": "Cytotoxicity for solid tumour cell lines", "assay_type": "cell-based", "procedure": "as §1"}, "[4]": {"system": "normal blood cells, in particular, lymphocytes monocytes and natural killer cells", "experiment": "Cytotoxicity for normal blood cells", "assay_type": "cell-based", "procedure": "as §1"}, "[5]": {"system": "cancer cells of myeloid and lymphoid origin", "experiment": "Cytotoxicity towards cancer cells", "assay_type": "cell-based", "settings": "in particular rapidly dividing cancer cells of myeloid and lymphoid origin"}, "cells": {"system": "cells", "experiment": "Cytotoxicity to cells (cell proliferation and flow cytometry)", "assay_type": "cell-based", "settings": "cells tested", "procedure": "as §1"}}, "note": "Like-named read-outs stand apart in the source and are kept apart here. No end group written: not given here.", "data": [{"compound": "CC[C@H](C)[C@H](NC(=O)CN)C(=O)NCC(=O)N[C@@H](C)C(=O)N[C@H](C(=O)N[C@@H](CC(C)C)C(=O)N[C@@H](CCCCN)C(=O)N[C@H](C(=O)N[C@@H](CC(C)C)C(=O)N[C@H](C(=O)N[C@H](C(=O)NCC(=O)N[C@@H](CC(C)C)C(=O)N1CCC[C@H]1C(=O)N[C@@H](C)C(=O)N[C@@H](CC(C)C)C(=O)N[C@H](C(=O)N[C@@H](CO)C(=O)N[C@@H](Cc1c[nH]c2ccccc12)C(=O)N[C@H](C(=O)N[C@@H](CCCCN)C(=O)N[C@@H](CCCNC(=N)N)C(=O)N[C@@H](CCCCN)C(=O)N[C@@H](CCCNC(=N)N)C(=O)N[C@@H](CCC(N)=O)C(=O)N[C@@H](CCC(N)=O)C(N)=O)[C@@H](C)CC)[C@@H](C)CC)[C@@H](C)O)[C@@H](C)O)C(C)C)C(C)C", "note": "[Melittin]", "values": [{"measurement": "efficiency on a molar basis in the lysis of red blood cells", "setting": "Red blood cells", "value": "most efficient"}, {"measurement": "% Viable Cells", "setting": "EBV-transformed B-cells", "value": 53.5, "unit": "%"}, {"measurement": "cells killed", "setting": "[1]; 0° C., 10 minutes", "value": 25, "unit": "%"}, {"measurement": "cells killed", "setting": "[1]; 37° C., 2 minutes", "value": "all cells were killed"}, {"measurement": "cells killed", "setting": "[1]; room temperature, 2 minutes", "value": 85, "unit": "%"}, {"measurement": "cells killed", "setting": "[1]; room temperature, 5 minutes", "value": "killed all cells"}]}, {"compound": "GLGSVFGRLARILGRVIPKVAKKLGPKVAKVLPKVMKEAIPMAVEMAKSQEEQQPQ [Pilosulin 1]", "values": [{"measurement": "cytotoxicity for proliferating Epstein-Barr Virus transformed B-cells", "setting": "[2]", "value": "cytotoxic"}, {"measurement": "effectiveness as a cytotoxin at 50% cell viability (relative)", "setting": "[2]; 3H-methyl-thymidine, overnight at 37° C., comparator not named", "value": "approximately 4 times"}, {"measurement": "cytotoxicity for granulocytes", "setting": "granulocyte population", "value": "resistant"}, {"measurement": "cytotoxicity for solid tumour cell lines", "setting": "[3]", "value": "cytotoxic"}, {"measurement": "cytotoxicity for normal blood cells", "setting": "[4]", "value": "low"}, {"measurement": "cytotoxicity for normal blood cells", "setting": "[4]; listed as Pilostilin 1", "value": "cytotoxic"}, {"measurement": "cytotoxicity towards cancer cells", "setting": "[5]", "value": "potent cytotoxicity"}]}, {"compound": "KLGPKVAKVLPKVMKEAIPMAVEMAKSQEEQQPQ [peptide 2]", "values": [{"measurement": "cytotoxicity to cells", "setting": "cells", "value": "no detectable cytotoxicity"}]}]}
